Experimental data published in patent US10525055B2, “Opioid receptor antagonist prodrugs” (Nirsum Laboratories, Inc., priority 2017, dated 2020).

Columns and labels:
[1] = cited from earlier work
[2] = Solubility determination in oil (cottonseed oil, sesame oil)
Procedure: A known amount of test substance (˜40 mg) was weighed into the vial, 100 μL of oil was added and heated to 60° C. and then system was slurried to reach equilibrium. […] Extra oil was added into the vial once compound precipitated out and then the system was re-equilibrated at 1000 rpm at room temperature (25° C.). Final concentration was determined by HPLC method as described below in Table 6a and 6b.

[3] = Equilibrium solubility in water; details: obs. temp. 40 °C
[4] = Polymorph screening of solid state drug substances; details: for XRPD results (Dried): stirred 50 °C 72 hours, solids dried; for Visual observation 50° C. / Visual observation RT: target conc. 100 mg/ml
[5] = Plasma stability assay, rat plasma; format: in vitro ADME; details: 37° C., 10 μM
MOR = target: T1, MOR (Homo sapiens, UniProt P35372); assay: Opioid receptor binding assay, MOR ([3H]DAMGO); details: for %Inh@MaxDose: MOR, MaxDose 10000 nM
T1 construct: expressed in transfected cells; membranes prepared from them

KOR = target: T2, KOR (Homo sapiens, UniProt P41145); assay: Opioid receptor binding assay, KOR ([3H]Diprenorphine); details: for %Inh@MaxDose: KOR, MaxDose 10000 nM
T2 construct: expressed in transfected cells; membranes prepared from them

[6] = Plasma stability assay, human plasma; format: in vitro ADME; details: 37° C., 2 μM
Procedure: (§1) Plasma stability determination of the test compounds in rat, dog, cynomolgus monkey and human plasma is performed using HPLC-MS. For rat, incubations are carried out in 96-well polypropylene plates in 5 aliquots of 70 μL each (one for each time point). […] Five time points are analyzed (0, 15, 120, 480 and 1440 min). […] All incubations are performed in duplicates. The samples are analyzed by HPLC-MS. The percentage of parent compound remaining after incubation in plasma is determined.

[7] = Plasma stability assay, dog plasma; format: in vitro ADME; details: 37° C., 2 μM
Procedure: as §1

DOR = target: T3, DOR (Homo sapiens, UniProt P41143); assay: Opioid receptor binding assay, DOR ([3H]-DADLE); details: DOR, MaxDose 10000 nM
T3 construct: expressed in transfected cells; membranes prepared from them

[8] = Plasma stability assay, monkey plasma; format: in vitro ADME, cynomolgus monkey; details: 37° C., 2 μM
Procedure: as §1

[9] = Liver S9 fraction stability, monkey; format: in vitro ADME, cynomolgus monkey; details: 1.0 mg/ml S9 protein, 2 μM, 37° C.
Procedure: (§2) Liver S9 fraction stability determination of the test compounds in dog, cynomolgus monkey and human is performed using HPLC-MS. Test compound (2 μM, 0.1% DMSO, 1% Methanol final concentration) was assessed for stability in a 50 μl phosphate buffer containing 1.0 mg/ml S9 protein from each of the three species and 5 mM D-saccharic acid-1, 4-lactone. Samples were incubated at 37° C. for 60 minutes and the % compound remaining was assessed.

[10] = Liver S9 fraction stability, dog; format: in vitro ADME; details: 1.0 mg/ml S9 protein, 2 μM, 37° C.
Procedure: as §2

[11] = Rat pharmacokinetic studies, intramuscular; format: in vivo, male Sprague Dawley Rats; details: rat IM
Procedure: The purpose of this study is to determine the pharmacokinetics of test compounds in plasma, following intramuscular administration to male Sprague Dawley Rats (n=3, unless otherwise specified).
The dose formulation of 400 mg base equivalents/ml in sesame oil+1% benzyl alcohol (unless otherwise specified) was administered by intramuscular injection. The dose volume was determined by the animals' body weight determined on the morning of dosing day.
Each collected blood sample was centrifuged for 4 minutes at 4° C. and 10000 rpm for plasma collection. Plasma was collected and transferred into a pre-labeled PP tube in dry ice at each time point and precipitated immediately using ACN at a ratio of 1:4 (plasma:ACN). Centrifuged again (10 minutes, 12000 rpm) and obtain the supernatant.
After terminal collection, all supernatant was stored at approximately −80° C. until bioanalysis.
LC-MS/MS methods for the quantitative determination of test compound in biological matrix were developed. […] The sample analysis was performed concurrently with a set of calibration standards and two sets of QC samples using the LC-MS/MS method.
Plasma concentration versus time data was analyzed by non-compartmental approaches using the Phoenix WinNonlin 6.3 software program. Cmax, Tmax, T1/2, AUC(0-t), AUC(0-inf), MRT(0-t), MRT(0-inf) and graphs of plasma concentration versus time profile were prepared.

[12] = Liver S9 fraction stability, human; format: in vitro ADME; details: 1.0 mg/ml S9 protein, 2 μM, 37° C.
Procedure: as §2

[13] = heating temp. 60 °C, obs. temp. 40 °C
[14] = 80 mg/kg, Cottonseed + 1% Benzyl Alcohol
[15] = 123 mg/kg, Cottonseed oil + 1% Benzyl Alcohol

T2 sequence (P41145 whole entry): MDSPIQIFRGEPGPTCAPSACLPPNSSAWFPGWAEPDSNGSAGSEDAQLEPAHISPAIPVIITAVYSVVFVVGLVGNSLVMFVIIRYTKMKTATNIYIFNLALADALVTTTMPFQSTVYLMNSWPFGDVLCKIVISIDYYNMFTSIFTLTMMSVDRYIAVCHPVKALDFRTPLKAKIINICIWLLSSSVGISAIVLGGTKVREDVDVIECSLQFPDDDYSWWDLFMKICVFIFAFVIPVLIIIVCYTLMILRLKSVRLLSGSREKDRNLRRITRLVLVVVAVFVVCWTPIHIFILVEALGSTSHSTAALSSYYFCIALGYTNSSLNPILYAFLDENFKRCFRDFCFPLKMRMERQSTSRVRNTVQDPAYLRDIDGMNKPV
T1 sequence (P35372 whole entry): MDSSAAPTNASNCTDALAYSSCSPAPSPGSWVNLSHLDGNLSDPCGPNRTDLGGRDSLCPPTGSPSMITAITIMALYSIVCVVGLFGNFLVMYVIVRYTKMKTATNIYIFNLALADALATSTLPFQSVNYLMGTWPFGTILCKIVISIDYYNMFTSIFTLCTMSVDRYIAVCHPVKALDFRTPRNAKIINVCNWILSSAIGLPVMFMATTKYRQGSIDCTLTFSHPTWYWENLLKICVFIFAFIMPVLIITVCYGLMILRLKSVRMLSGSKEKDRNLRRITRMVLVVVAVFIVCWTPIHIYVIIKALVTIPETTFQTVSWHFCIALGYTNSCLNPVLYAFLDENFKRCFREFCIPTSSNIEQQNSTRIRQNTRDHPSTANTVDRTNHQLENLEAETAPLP
T3 sequence (P41143 whole entry): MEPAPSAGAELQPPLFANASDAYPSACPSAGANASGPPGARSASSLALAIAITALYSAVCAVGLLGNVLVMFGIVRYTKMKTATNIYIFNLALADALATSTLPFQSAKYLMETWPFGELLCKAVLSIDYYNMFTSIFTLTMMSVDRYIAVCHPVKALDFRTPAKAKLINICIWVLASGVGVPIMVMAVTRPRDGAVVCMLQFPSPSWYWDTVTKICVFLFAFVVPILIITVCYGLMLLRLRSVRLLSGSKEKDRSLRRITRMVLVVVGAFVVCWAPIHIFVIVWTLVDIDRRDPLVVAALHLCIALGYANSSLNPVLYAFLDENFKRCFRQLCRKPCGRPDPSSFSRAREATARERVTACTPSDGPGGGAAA

## Oc1ccc2c3c1O[C@H]1[C@H](O)CC[C@@]4(O)[C@@H](C2)N(CC2CC2)CC[C@]314 [6-β-naltrexol]
[1]
  time of peak plasma levels after oral dosing: one
[1]; oral
  mean elimination half-life: thirteen

## C=C1CC[C@@]2(O)[C@H]3Cc4ccc(O)c5c4[C@@]2(CCN3CC2CC2)[C@H]1O5 [61 (Nalmefene)]
[2]; Cottonseed oil, heating temp. 60 °C, obs. temp. 40 °C
  Approximate Solubility (mg/mL) in Excipient: Cottonseed oil: <25.0 mg/mL
[2]; Ethanol, heating temp. 60 °C, obs. temp. 40 °C
  Approximate Solubility (mg/mL) in Excipient: Ethanol: 102 to 137 mg/mL
[2]; [13]
  Approximate Solubility (mg/mL) in Excipient: Sesame oil: <25.5 mg/mL
[3]; heating temp. 60 °C
  Equilibrium solubility (mg/mL) Water: 0.025 mg/mL

## C=C1CC[C@@]2(O)C3Cc4ccc(OC(=O)CCCCCCCCCCCCCCCCC)c5c4[C@@]2(CCN3CC2CC2)[C@H]1O5 [Compound 12, (4aS,7aS,12bS)-3-(cyclopropylmethyl)-4a-hydroxy-7-methylene-2,3,4,4a,5,6,7,7a-octahydro-1H-4,12-methanobenzofuro[3,2-e]isoquinolin-9-yl stearate]
[2]; heating temp. 60 °C, obs. temp. 25 °C
  Approximate Solubility (mg/mL) in Excipient: Sesame oil: <50 mg/mL
[2]; [13]
  Approximate Solubility (mg/mL) in Excipient: Sesame oil: >411.1 mg/mL
[3]; heating temp. 40 °C
  Equilibrium solubility (mg/mL) Water: 0.026 mg/mL

## C=C1CC[C@@]2(O)C3Cc4ccc(OC(=O)CCCCCCCCCCCCCCCCCCCCC)c5c4[C@@]2(CCN3CC2CC2)[C@H]1O5 [Compound 14, (4aS,7aS,12bS)-3-(cyclopropylmethyl)-4a-hydroxy-7-methylene-2,3,4,4a,5,6,7,7a-octahydro-1H-4,12-methanobenzofuro[3,2-e]isoquinolin-9-yl docosanoate]
[2]; heating temp. 40 °C, obs. temp. 40 °C
  Approximate Solubility (mg/mL) in Excipient: Sesame oil: <51 mg/mL
[4]; Acetone
  XRPD results (Dried): Pattern A
  Visual observation 50° C.: Clear
  Visual observation RT: Slimy
[4]; EtOAc
  XRPD results (Dried): Pattern A
  Visual observation 50° C.: Clear
  Visual observation RT: Slurry
[4]; Heptane
  XRPD results (Dried): Pattern B
  Visual observation 50° C.: Slurry
  Visual observation RT: Slurry
[4]; Isopropanol
  XRPD results (Dried): Pattern A
  Visual observation 50° C.: Clear
  Visual observation RT: Clear
[4]; MTBE
  XRPD results (Dried): Pattern A
  Visual observation 50° C.: Clear
  Visual observation RT: Clear
[3]; heating temp. 40 °C
  Equilibrium solubility (mg/mL) Water: 0.0056 mg/mL
[5]
  % remaining at time point in minutes, 0 min: 100%
  % remaining at time point in minutes, 15 min: 94%
  % remaining at time point in minutes, 120 min: 112%
  % remaining at time point in minutes, 480 min: 107%
  % remaining at time point in minutes, 1440 min: 120%
MOR
  IC50: 0.0125 µM
  %Inh@MaxDose: 92.7%
KOR
  IC50: 1.77 µM
  %Inh@MaxDose: 68.1%

## C=C1CC[C@@]2(O)C3Cc4ccc(OCOC(=O)OCCCCCCCCCCCC)c5c4[C@@]2(CCN3CC2CC2)[C@H]1O5 [Compound 24, (((4aS,7aS,12bS)-3-(cyclopropylmethyl)-4a-hydroxy-7-methylene-2,3,4,4a,5,6,7,7a-octahydro-1H-4,12-methanobenzofuro[3,2-e]isoquinolin-9-yl)oxy)methyl dodecyl carbonate]
[6]; 0 min
  % remaining at time point in minutes, 0 min: 100%
[6]; 15 min (as headed)
  % remaining at time point in minutes, 15 min: 94%
[6]; 120 min (as headed)
  % remaining at time point in minutes, 120 min: 102.3%
[6]; 480 min (as headed)
  % remaining at time point in minutes, 480 min: 105.3%
[6]; 1440 min (as headed)
  % remaining at time point in minutes, 1440 min: 112.5%
[7]; 0 min
  % remaining at time point in minutes, 0 min: 100%
[7]; 15 min (as headed)
  % remaining at time point in minutes, 15 min: 94.7%
[7]; 120 min (as headed)
  % remaining at time point in minutes, 120 min: 104.5%
[7]; 480 min (as headed)
  % remaining at time point in minutes, 480 min: 115.7%
[7]; 1440 min (as headed)
  % remaining at time point in minutes, 1440 min: 116.2%
DOR
  %Inh@MaxDose: 48%
[8]; 0 min
  % remaining at time point in minutes, 0 min: 100%
[8]; 15 min (as headed)
  % remaining at time point in minutes, 15 min: 90.7%
[8]; 120 min (as headed)
  % remaining at time point in minutes, 120 min: 93.5%
[8]; 480 min (as headed)
  % remaining at time point in minutes, 480 min: 96.2%
[8]; 1440 min (as headed)
  % remaining at time point in minutes, 1440 min: 97.8%
[9]
  Liver S9 Fraction Stability % remaining at 60 minutes, Monkey: 3%
[5]
  % remaining at time point in minutes, 0 min: 100%
  % remaining at time point in minutes, 15 min: 32%
  % remaining at time point in minutes, 120 min: 11.8%
  % remaining at time point in minutes, 480 min: 8.2%
  % remaining at time point in minutes, 1440 min: 3%
[10]
  Liver S9 Fraction Stability % remaining at 60 minutes, Dog: 3.6%
MOR
  %Inh@MaxDose: 88.7%
[11]; [14]
  AUC0-inf (ng · h/mL) prodrug: 0.147 µg·h/mL
  Half-life t1/2 (hour) prodrug: 398 h
[11]; [15]
  AUC0-inf (ng · h/mL) prodrug: 0.547 µg·h/mL
  Half-life t1/2 (hour) prodrug: 717 h
[11]; 165 mg/kg, Cottonseed oil + 1% Benzyl Alcohol
  AUC0-inf (ng · h/mL) prodrug: 0.453 µg·h/mL
KOR
  %Inh@MaxDose: 82.9%
[12]
  Liver S9 Fraction Stability % remaining at 60 minutes, Human: 3.5%

## O=C(CCC1CCCC1)Oc1ccc2c3c1O[C@H]1C(=O)CC[C@@]4(O)C(C2)N(CC2CC2)CC[C@]314 [Compound 43, (4aS,7aR,12bS)-3-(cyclopropylmethyl)-4a-hydroxy-7-oxo-2,3,4,4a,5,6,7,7a-octahydro-1H-4,12-methanobenzofuro[3,2-e]isoquinolin-9-yl 3-cyclopentylpropanoate]
[3]; heating temp. 40 °C
  Equilibrium solubility (mg/mL) Water: 0.048 mg/mL

## O=C1CC[C@@]2(O)[C@H]3Cc4ccc(O)c5c4[C@@]2(CCN3CC2CC2)[C@H]1O5 [naltrexone, 17-(cyclopropylmethyl)-4,5α-epoxy-3,14-dihydroxymorphinan-6-one, reference compound]
[1]
  time of peak plasma levels after oral dosing: one
